Series [1] relates to patients with newly diagnosed, previously untreated AML. Description: Phase 1 dose-escalation study of alvocidib followed by cytarabine/daunorubicin (7+3): response assessment by ELN Guidelines. It counts as in vivo, human. The procedure: Methods: Study Population. This was a Phase 1, open-label, multicenter, dose-escalation study of alvocidib followed by cytarabine/daunorubicin (7+3) in patients with AML (NCT03298984). Patients aged 18-65 years with newly diagnosed, previously untreated AML and pathological confirmation of bone marrow (BM) blasts ≥20% were eligible. Key inclusion criteria included: Eastern Cooperative Oncology Group (ECOG) performance status (PS) ≤2, serum creatinine level ≤1.8 mg/dL, alanine aminotransferase (ALT) and aspartate aminotransferase (AST) ≤5 times upper limit of normal (ULN), total bilirubin ≤2.0 mg/dL, and left ventricular ejection fraction (EF) >45%. Patients were excluded if they had previous treatment for AML (with the exception of hydroxyurea), and were diagnosed with acute promyelocytic leukemia (APL-M3) or core-binding factor AML ((CBF-AML: t(8;21); inv(16); t(16;16)). All patients provided written informed consent. This study was conducted as per the Declaration of Helsinki after approval by ethics committee of each participating center.
Treatment Plan: Induction.
Consolidation. Patients who achieved a complete remission (CR) received 2 to 4 cycles of consolidation therapy with high dose cytarabine (HiDAC) 3 gm/m^2 IV every 12 hours on days 1, 3 and 5 upon full hematological recovery (absolute neutrophil count >1×10^−3/L and platelets >1×10^1/L). HiDAC was permitted to be dose reduced to 1.5 gm/m^2 IV every 12 hours on days 1, 3 and 5 in those >60 years. Allogeneic stem cell transplantation was permitted after induction per standard of care but was recommended after at least 1 cycle of HiDAC consolidation in those who achieved CR.
Response Assessments. Response assessment was performed by a bone marrow aspirate and biopsy at the time of full hematologic recovery or by day 50 and day 60 of 1 versus 2 induction cycles, respectively. Response to therapy was assessed by standardized ELN Guidelines. In those who achieved CR and received consolidation therapy, a bone marrow aspirate and biopsy was performed after cycle 2 of HiDAC, after completion of consolidation therapy, and at any suspicion of relapse.
(§1) Statistical Analysis. […] Intra-patient dose escalation was not permitted. […] Database lock was on Apr. 30, 2020.

Series [2] shares this test system. Description: Minimal residual disease (MRD) analysis of bone marrow by flow cytometry in the Phase 1 study. It counts as in vivo, human. As for the experimental part: Minimal Residual Disease (MRD) Analysis. MRD was assessed in bone marrow samples at the time of response by a uniform central assay (Hematologics, Inc.) in an exploratory cohort, as has been previously described. Samples were first incubated with antibodies for 20 minutes at room temperature. Red blood cells were then lysed at 37° C. using buffered NH4Cl for 5 minutes, followed by centrifugation at 300 g. Cells were subsequently washed with PBS supplemented with 2% FCS and resuspended in 1% paraformaldehyde. Samples were analyzed on a FACSCalibur™ flow cytometer (Becton Dickinson Biosciences). 200,000 events were analyzed for each sample. Data analysis was performed with WinList™ software (Verity Software House). Two independent reviewers viewed each sample to arrive at a consensus on the data.
(In general: A flow cytometer gives signals particle by particle.)

Series [3] has the same test system. As to the kind of experiment: Kaplan-Meier time-to-event analyses and clinical outcomes (OS, EFS, RFS, relapse) in the Phase 1 study. Type of series: in vivo, human.
Source text: as §1

The test system is the same in series [4]. The procedure: Treatment Plan: Induction. Alvocidib was dose-escalated starting at dose level 1: 20 mg/m^2 30-minute IV bolus followed by 30 mg/m^2 IV infusion over 4 hours on Days 1-3 (FIG. 1). Daunorubicin 60 mg/m^2 IV bolus over 15 minutes was initiated on days 5-7, and cytarabine 100 mg/m^2/day IV continuous 24-hour infusion was administered on Days 5-11. A bone marrow aspirate and biopsy was performed on day 14 (+/−3 days) and patients with residual leukemia (>5% bone marrow blasts and >10% cellularity) were recommended to receive a second induction cycle with alvocidib on days 1-3 (same dose level as induction) followed by daunorubicin 45 mg/m^2/day IV over 15 minutes on days 5 and 6 and cytarabine 100 mg/m^2/day IV continuous infusion over days 5-9 (“5+2”).
Statistical Analysis. Alvocidib dose was escalated using a 3+3 design (FIG. 1). Successive cohorts of patients (3-6 per cohort) were treated with escalated doses until the maximal tolerated dose (MTD) was established. Intra-patient dose escalation was not permitted. Descriptive analysis was performed for the safety and efficacy endpoints. MTD for alvocidib was estimated by the highest alvocidib dose for which the incidence of DLT during Cycle 1 was less than 33% in combination with 7+3. Kaplan-Meier time-to-event analyses were performed on overall survival (OS), relapse-free survival and duration of remission. […]

The next series concerns MDS blasts. As to the kind of experiment: MCL-1 dependency assay of MDS blasts after azacitidine pre-treatment. The conditions noted are these: patient sample MDS1060; MCL-1 dependency cut-off of 40%. Type of series: cell-based, human. As for the experimental part: CD13, CD33, CD34, CD45, CD3 and CD20 were used as markers to identify MDS blasts, and to perform MCL-1 dependency analyses. MDS blasts were positive for CD13, CD33 and CD34, dim for CD45 and negative for CD3 and CD20.
On day 1 of the MCL-1 dependency assay, 5×10^4-1×10^5 HS-5 feeder cells were plated into a 6-well plate, and allowed to attached overnight. HS-5 feeder cells improve viability of frozen MDS bone marrow mononuclear cells (BMMCs) after thawing. On day 2 of the assay, MDS BMMCs were thawed, and divided into three treatment groups corresponding to treatment with DMSO, treatment with 1 μM azacitidine or treatment with 2.5 μM azacitidine. On day 4, after a 48-hour treatment period, MCL-1 dependency of MDS blasts, lymphocytes and monocytes were separately assessed.

The subject of series [5] is MCL-1 protein levels in blasts. Conditions: cited from earlier work.

The structures appear in SMILES notation.

In the case of `CN1CC[C@H](c2c(O)cc(O)c3c(=O)cc(-c4ccccc4Cl)oc23)[C@H](O)C1` [alvocidib, 2-(2-chlorophenyl)-5,7-dihydroxy-8-[(3S,4R)-3-hydroxy-1-methylpiperidin-4-yl]chromen-4-one], in series [1] (MCL-1 dependence threshold priming >30%, exploratory analysis), the “differences in response to alvocidib in patients with or without MCL-1 dependence” value is listed as “No significant differences”. Besides, the “patients who received re-induction for residual leukemia on day 14” value in series [1] (all enrolled, 3 patients, re-induction with alvocidib and 5+2) is given as 9%. Further, the CR rate in series [1] (genomic class AML with NPM1 mutation (8/10)) is 80%. Further, in series [1] (re-induction with alvocidib and 5+2), the “CR among patients who received re-induction therapy” value was “None”. Further, in series [2] (4/9, flow cytometry and/or institutional standard assessment), the “MRD-negative among CR patients with ELN adverse-risk disease” value was 44%. For the same compound, the “MRD-negative CR in ELN adverse-risk patients” value in series [2] (exploratory cohort, 3 out of 4) is 75%. Besides, the “patients who achieved CR without MRD and remain in CR” value in series [3] (9 patients) was determined as 82%. The “median OS” value in series [3] (32 patients, median follow-up 9.2 months) is reported as “not reached”. In addition, the “duration of CR, range” value in series [3] (CR patients relapsed to date) is given as 1.4-13.6 months. In series [3] (of the 22 CR patients, 7 patients), the “CR patients relapsed to date” value stood at 32%. The “median RFS” value in series [3] (time from CR/CRi up to disease relapse or death) was “not reached”. Also, the “patients who achieved CR without evidence of MRD and relapsed” value in series [3] (two patients) is listed as 18%. In addition, the “MTD (alvocidib dose)” value in series [4] (IV bolus/IV infusion on Days 1-3, in combination with 7+3) is “(30/60 mg/m^2)”. The “safety and feasibility of alvocidib administration prior to 7+3 induction” value in series [4] (in vivo) is given as “safe, feasible”.

Consider `Nc1ncn([C@@H]2O[C@H](CO)[C@@H](O)[C@H]2O)c(=O)n1` [azacitidine], for which, in the series on MDS blasts, the “change of MCL-1 dependency status of blasts” value was “rendered MCL-1-independent blasts MCL-1 dependent”. In addition, the “effect on MCL-1 protein levels in blasts” value in series [5] is on record as “reduce MCL-1 protein levels in blasts”.
